{"source": "patent US20110098495A1", "about": "“Compositions and methods of omega polyunsaturated fatty acids for the treatment of oral diseases” (priority 2009, published 2011)", "type_in_all_cases": "cell-based", "key": {"Candida albicans": {"system": "Candida albicans", "test": "Candida albicans growth inhibition", "details": "final concentration 25 μg/ml", "description": "[The procedure below names another organism; the source lists this organism under the same test.] (§1) The inventor verified the test by dissolving 1 mg of omega-3 fatty acids (EPA, DHA, and ALA) and omega-6 fatty acids (ARA, GLA), omega-3 fatty acid methyl esters (EPA-ME, DHA-ME, ALA-ME), and omega-3 fatty acid ethyl esters (EPA-EE, DHA-EE, ALA-EE) in 1000 μl ethanol solution; took 1 (final concentration 1 μg/ml) and 5 μl (final concentration 5 μg/ml) solution by adding 100 μl of Streptococcus mutans in the culture medium cultured overnight at 37° C. After the overnight culture, the medium was diluted 1:10000 times, 5 μl of the diluted culture was applied to blood agar plate and cultured overnight. Calculated the number of colonies on the plates and compared with the control group to obtain the percentage of inhibition."}, "[1]": {"system": "Actinobacillus actinomycetemcomitans", "test": "Actinobacillus actinomycetemcomitans growth inhibition", "details": "Aggregatibacter actinomycetemcomitans; final concentration 15 μg/ml", "description": "[The procedure below names another organism; the source lists this organism under the same test.] as §1"}, "Streptococcus mutans": {"system": "Streptococcus mutans", "test": "Streptococcus mutans growth inhibition, colony count on blood agar plate vs control", "details": "overnight culture 37° C, colony count vs negative control, read-out: IC50 against Streptococcus mutans", "description": "as §1"}}, "data": [{"smiles": "CC/C=C\\C/C=C\\C/C=C\\CCCCCCCC(=O)O", "note": "[ALA, α-linolenic acid]", "values": [{"measurement": "inhibition at 25 µg/mL", "setting": "Candida albicans", "value": 50, "unit": "%"}, {"measurement": "inhibition at 15 µg/mL", "setting": "[1]", "value": 50, "unit": "%"}]}, {"smiles": "CCCCC/C=C\\C/C=C\\C/C=C\\C/C=C\\CCCC(=O)O", "note": "[ARA, arachidonic acid]", "values": [{"measurement": "IC50", "setting": "Streptococcus mutans", "value": "~5", "unit": "µg/mL"}, {"measurement": "inhibition at 25 µg/mL", "setting": "Candida albicans", "value": 50, "unit": "%"}, {"measurement": "inhibition at 15 µg/mL", "setting": "[1]", "value": 50, "unit": "%"}]}, {"smiles": "CC/C=C\\C/C=C\\C/C=C\\C/C=C\\C/C=C\\C/C=C\\CCC(=O)O", "note": "[DHA, docosahexaenoic acid]", "values": [{"measurement": "inhibition at 25 µg/mL", "setting": "Candida albicans", "value": 50, "unit": "%"}, {"measurement": "inhibition at 15 µg/mL", "setting": "[1]", "value": 50, "unit": "%"}]}, {"smiles": "CC/C=C\\C/C=C\\C/C=C\\C/C=C\\C/C=C\\CCCC(=O)O", "note": "[EPA, eicosapentaenoic acid]", "values": [{"measurement": "inhibition at 25 µg/mL", "setting": "Candida albicans", "value": 50, "unit": "%"}, {"measurement": "inhibition at 15 µg/mL", "setting": "[1]", "value": 50, "unit": "%"}]}, {"smiles": "CCCCC/C=C\\C/C=C\\C/C=C\\CCCCC(=O)O", "note": "[GLA, γ-linolenic acid]", "values": [{"measurement": "IC50", "setting": "Streptococcus mutans", "value": "~5", "unit": "µg/mL"}]}]}
